Source: patent publication EP0166355A2, “Substituted aminophenyl compounds and acylaminophenyl compounds and pharmaceutical compositions containing them” (Merck & Co., Inc., priority 1984, dated 1986)
Peptide text beside a SMILES is read from it. * marks the point of attachment. X1 = O=C(c1ccccc1)c1ccccc1N*; Cbz = O=C(OCc1ccccc1)*

target: T1, CCK receptor (Rattus norvegicus, UniProt P30551); assay: CCK Receptor Binding (Pancreas), 125I-CCK-33; set-up: species or system rats; conditions: inhibition of 125I-CCK-33 binding, rat pancreas membranes, 37°C, 30 minutes; read-out: IC50(µM) ^125I-CCK Pancreas
T1 construct: The whole pancreas was dissected free of fat tissue and was homogenized; from tissue; host or cells: rat whole pancreas membrane homogenate
T1 sequence (P30551 1-444): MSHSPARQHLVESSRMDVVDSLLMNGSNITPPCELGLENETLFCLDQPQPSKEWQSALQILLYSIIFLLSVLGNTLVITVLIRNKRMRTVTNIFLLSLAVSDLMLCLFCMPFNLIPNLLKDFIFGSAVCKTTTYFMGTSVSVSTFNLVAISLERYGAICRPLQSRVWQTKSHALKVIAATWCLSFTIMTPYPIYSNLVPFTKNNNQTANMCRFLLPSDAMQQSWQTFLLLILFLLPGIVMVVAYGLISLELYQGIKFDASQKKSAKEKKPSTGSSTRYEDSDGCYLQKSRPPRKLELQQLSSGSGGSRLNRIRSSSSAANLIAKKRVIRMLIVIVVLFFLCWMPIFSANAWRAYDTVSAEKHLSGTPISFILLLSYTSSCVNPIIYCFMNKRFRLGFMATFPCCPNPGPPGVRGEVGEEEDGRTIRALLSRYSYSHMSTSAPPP
Experimental: 1. CCK Receptor Binding (Pancreas)
CCK-33 was radiolabeled with ^125 I-Bolton Hunter reagent (2000 Ci/mmole) as described by Sankara et al. (J. Biol. Chem. 254: 9349-9351, 1979). Receptor binding was performed according to Innis and Snyder (Proc. Natl. Acad. Sci. 77: 6917-6921, 1980) with the minor modification of adding the additional protease inhibitors, phenylmethane sulfonyl fluoride and o-phenanthroline. The latter two compounds have no effect on the ^125I-CCK receptor binding assay.
Male Sprague-Dawley rats (200-350g) were sacrificed by decapitation. The whole pancreas was dissected free of fat tissue and was homogenized in 20 volumes of ice-cold 50 mM, Tris HC1 (pH 7.7 at 25°C) with a Brinkmann Polytron PT 10. The homogenates were centrifuged at 48,000 g for 10 min. Pellets were resuspended in Tris Buffer, centrifuged as above and resuspended in 200 volumes of binding assay buffer (50 mM Tris HC1, pH 7.7 at 25°C, 5 mM dithiothrietol, 0.1 mM bacitracin, 1.2 mM phenylmethane sulfonyl fluoride and 0.5 mM o-phenanthroline). For the binding assay, 25 µl of buffer (for total binding) or unlabeled CCK-8 sulfate to give a final concentration of lµM (for nonspecific binding) or the compounds of Formula I (for determination inhibition of 125I-CCK binding) and 25 ul of ^125 I-CCK-33 (30,000-40,000 cpm) were added to 450 µl of the membrane suspensions in microfuge tubes. All assays were run in duplicate or triplicate. The reaction mixtures were incubated at 37°C for 30 minutes and centrifuged in a Beckman Microfuge (4 minutes) immediately after adding 1 ml of ice-cold incubation buffer. The supernatant was aspirated and discarded, pellets were counted with a Beckman gamma 5000. For Scatchard analysis (Ann. N.Y. Acad. Sci. 51: 660, 1949), ^125I-CCK-33 was progressively diluted with increasing concentrations of CCK-33.

| Compound | IC50 |
| --- | --- |
| O=C(N[C@@H](Cc1c[nH]c2ccccc12)C(=O)Nc1ccc(Cl)cc1C(=O)c1ccccc1)c1ccsc1 [Example 21, 2-N-(N^a-3-thienoyl-L-tryptophanyl)amino-5-chlorobenzophenone] | 0.4 µM |
| CC(C)(C)OC(=O)NCC(=O)N[C@@H](Cc1c[nH]c2ccccc12)C(=O)Nc1ccccc1C(=O)c1ccccc1 [Example 18, 2-N-(N^a-Boc-glycyl-L-tryptophanyl)aminobenzophenone] | 8 µM |
| CC(=O)N[C@@H](Cc1c[nH]c2ccccc12)C(=O)Nc1ccccc1C(=O)c1ccccc1 [Example 16, 2-N-(N^a-acetyl-L-tryptophanyl)aminobenzophenone] | 1 µM |
| O=C(N[C@@H](CC1CNc2ccccc21)C(=O)Nc1ccc(Cl)cc1C(=O)c1ccccc1)c1ccsc1 (single isomer, unassigned) [Example 22B] | 2.2 µM |
| CC(C)(C)OC(=O)N[C@@H](Cc1c[nH]c2ccccc12)C(=O)Nc1ccc(Cl)cc1C(=O)c1ccccc1 [Example 2, 2-N-(N-a-Boc-L-tryptophanyl)amino-5-chlorobenzo phenone] | 0.74 µM |
| O=C(N[C@@H](Cc1c[nH]c2ccccc12)C(=O)Nc1ccccc1C(=O)c1ccccc1)c1ccc(Cl)cc1 [Example 15, 2-N-(N^α-p-Chlorobenzoyl-L-tryptophanyl)aminobenzophenone] | 0.9 µM |
| CC(C)(C)OC(=O)N[C@@H](Cc1c[nH]c2ccccc12)C(=O)Nc1ccccc1C(=O)c1ccccc1F [Example 3, 2-N-(N^a-Boc-L-tryptophanyl)amino-2'-fluorobenzo phenone] | 3.7 µM |
| CC(C)(C)OC(=O)N[C@@H](Cc1c[nH]c2ccccc12)C(=O)Nc1ccccc1C(=O)c1ccccc1 [Example 5, 2-N-(N^a-Boc-L-tryptophanyl)aminobenzophenone] | 4.8 µM |
| O=C(NC(Cc1cccs1)C(=O)Nc1ccccc1C(=O)c1ccccc1F)c1ccsc1 (racemic) [Example 12, 2-N-(N^a-3-Thienoyl-DL-B-(2-thienyl)alanyl)amino 2'-fluorobenzophenone] | 1.3 µM |
| O=C(N[C@@H](Cc1c[nH]c2ccccc12)C(=O)Nc1ccccc1C(=O)c1ccccc1)c1ccsc1 [Example 17, 2-N-(N^a-3-thienoyl-L-tryptophanyl)aminobenzophenone] | 0.19 µM |
| CSCC[C@H](NC(=O)OC(C)(C)C)C(=O)NCC(=O)N[C@@H](Cc1c[nH]c2ccccc12)C(=O)Nc1ccccc1C(=O)c1ccccc1 [Example 19, 2-N-(N^a-Boc-L-methionyl-glycyl-L-tryptophanyl)aminobenzophenone] | 2.4 µM |
| O=C(CCc1c[nH]c2ccccc12)Nc1ccc(Cl)cc1C(=O)c1ccccc1 [Example 13, 2-N-[3-(3'indolyl)propanoyl]amino-5-chlorobenzophenone] | 10 µM |

same assay, conditions: read-out: IC50(µM) ^125I-CCK Pancreas; inhibition of 125I-CCK-33 binding, rat pancreas membranes, 37°C, 30 minutes

| Compound | IC50 |
| --- | --- |
| CSCC[C@H](NC(=O)[C@H](Cc1ccc(O)cc1)NC(=O)OCc1ccccc1)C(=O)NCC(=O)N[C@@H](Cc1c[nH]c2ccccc12)C(=O)Nc1ccccc1C(=O)c1ccccc1 [Example 20, 2-N-(N^a-Benzyloxycarbonyl-L-tryosyl-L-methionyl-glycyl-L-tryptophanyl)aminobenzophenone] (Cbz-YMGW-X1) | 2 µM |
